Measured values reported in patent publication US20240279302A1, “OLFACTORY RECEPTOR EXPRESSING METHOD AND RESPONSE MEASUREMENT METHOD” (Kao Corporation, priority 2021, published 2024).
Entries after “also recorded” stand apart in the source; their conditions may differ.

Experiments:
[1] = molecular target: T1, consensus olfactory receptor 6B2 with R122C and C179R mutations (Homo sapiens, UniProt Q6IFH4, C161Y/C179R/C234R/E83D/G146A/H133Q/I215V/I48T/L135I/L142V/L17F/L255M/L256I/M157V/P138T/Q268R/Q89R/R122C/S64G/T78I/V136M/V15L/V166A/V250I/V281L/W219G); experiment: Luciferase assay (odorant response); assay type: cell-based; conditions: versus consensus 6B2
T1 construct: expressed in transfected cells; host or cells: HEK293
Experimental: (§1) For luciferase assay, a reaction solution was prepared according to composition shown in Table 4, left standing for 20 minutes in a clean bench, and then added to each well of a 96-well plate (Becton, Dickinson and Company). Subsequently, 100 μL of HEK293 cells suspended in DMEM (Nacalai Tesque, Inc.) was inoculated at 2×10^5 cells/cm^2 to each well, and cultured for 24 hours in an incubator kept at 37° C. and 5% CO2. Cells expressing no olfactory receptor (Mock) were provided as a control.
(§2) The medium was removed from the cultures prepared in 2), and 75 μL of a test substance solution with a predetermined concentration prepared with a fresh medium was added thereto. The cells were cultured for 4 hours in a CO2 incubator and the luciferase gene was sufficiently expresses in the cells. Luciferase activity was measured using Dual-Glo™ luciferase assay system (Promega Corp.) in accordance with the operation manual of the product. A luminescence value derived from firefly luciferase induced by test substance stimulation in each well of the 96-well plate was divided by a luminescence value derived from Renilla luciferase to calculate a signal, which was then used in analysis. The signal under each transfection condition was normalized with the signal under a stimulation-free condition defined as 0% and the signal by stimulation with 30 μM forskolin defined as 100%, and used as a response (%) in analysis.
(§3) Whether responsiveness coinciding with difference among individuals in sensory evaluation would be obtained was tested by applying the consensus design (c) to each human olfactory receptor newly identified in FIGS. 5 and 6, and then introducing an amino acid sequence reported to have difference among individuals (FIG. 7).

[2] = molecular target: T2, consensus olfactory receptor 5C1 with N5K mutation (Homo sapiens, UniProt Q8NGR4, A10R/A30T/A50V/C35F/G245C/H231R/H313C/I178V/I206V/K177E/L166F/L6F/M255L/M47V/M55V/N23D/N5K/Q142R/Q307R/R131G/R8W/S194N/S238R/S288A/T114A/T219A/T34I/V17I/V235A); experiment: Luciferase assay (odorant response); assay type: cell-based; conditions: versus consensus 5C1
T2 construct: expressed in transfected cells; host or cells: HEK293
Experimental: as §1, §2, §3

[3] = molecular target: T3, consensus 10A4, (c) Ortholog (Homo sapiens, UniProt Q9H209, A244S/A267T/E4G/H132R/H139R/I140R/I51T/K296S/K303R/L305V/Q237K/Q264R/S141A/S155P/S269P/S279Y/S293L/S312P/T22S/V195L); experiment: Luciferase assay (odorant response); assay type: cell-based
T3 construct: expressed in transfected cells; host or cells: HEK293
Experimental: as §1, §2

[4] = molecular target: T4, consensus 10A2, (c) Ortholog (Homo sapiens, UniProt Q9H208, A297G/C30S/G257S/H207R/I240V/M268V/N222H/T20I/V292F); experiment: Luciferase assay (odorant response); assay type: cell-based
T4 construct: expressed in transfected cells; host or cells: HEK293
Experimental: as §1, §2

[5] = molecular target: T5, consensus 10A4 R262Q variant (Homo sapiens, UniProt Q9H209, A244S/A267T/E4G/H132R/H139R/I140R/I51T/K296S/K303R/L305V/Q237K/Q264R/R262Q/S141A/S155P/S269P/S279Y/S293L/S312P/T22S/V195L); experiment: Luciferase assay (odorant response); assay type: cell-based
T5 construct: expressed in transfected cells; host or cells: HEK293
Experimental: as §1, §2, §3

[6] = molecular target: T6, consensus OR10A2 variant of H43R, H207R, and K258T (Homo sapiens, UniProt Q9H208, A297G/C30S/G257S/H207R/H43R/I240V/K258T/M268V/N222H/T20I/V292F); experiment: Luciferase assay (odorant response); assay type: cell-based
T6 construct: expressed in transfected cells; host or cells: HEK293
Experimental: as §1, §2, §3

[7] = molecular target: T7, OR2A25 (original human receptor) (Homo sapiens, UniProt A4D2G3); experiment: Luciferase assay (odorant response); assay type: cell-based
T7 construct: expressed in transfected cells; host or cells: HEK293
Experimental: as §1, §2

6Y1 = conditions: as disclosed in Non Patent Literature 2; cited from earlier work

T3 sequence (Q9H209 1-315 with the stated changes): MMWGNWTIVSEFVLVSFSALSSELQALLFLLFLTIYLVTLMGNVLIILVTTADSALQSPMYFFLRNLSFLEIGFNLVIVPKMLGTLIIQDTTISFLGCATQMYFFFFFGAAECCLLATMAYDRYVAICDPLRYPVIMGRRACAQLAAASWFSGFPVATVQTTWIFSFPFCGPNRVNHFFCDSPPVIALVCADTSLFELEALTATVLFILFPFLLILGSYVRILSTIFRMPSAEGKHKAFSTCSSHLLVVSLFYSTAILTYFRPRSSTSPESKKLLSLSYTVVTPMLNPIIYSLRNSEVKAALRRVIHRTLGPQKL
T4 sequence (Q9H208 with tags, fused parts or gaps T20I/C30S/H207R/N222H/I240V/G257S/M268V/V292F/A297G): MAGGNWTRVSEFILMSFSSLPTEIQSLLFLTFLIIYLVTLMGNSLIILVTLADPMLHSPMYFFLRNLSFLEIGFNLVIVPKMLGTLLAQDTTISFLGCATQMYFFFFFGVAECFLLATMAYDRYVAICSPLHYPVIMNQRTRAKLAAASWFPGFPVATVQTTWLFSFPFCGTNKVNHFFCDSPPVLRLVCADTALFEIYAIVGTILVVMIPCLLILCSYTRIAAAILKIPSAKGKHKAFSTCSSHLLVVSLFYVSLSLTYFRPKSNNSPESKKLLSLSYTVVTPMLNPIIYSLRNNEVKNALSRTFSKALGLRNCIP
T6 sequence (Q9H208 with tags, fused parts or gaps with the stated changes): as the sequence (Q9H208 with tags, fused parts or gaps T20I/C30S/H207R/N222H/I240V/G257S/M268V/V292F/A297G) above, with H57R, K272T counted along it
T1 sequence (Q6IFH4 with tags, fused parts or gaps with the stated changes): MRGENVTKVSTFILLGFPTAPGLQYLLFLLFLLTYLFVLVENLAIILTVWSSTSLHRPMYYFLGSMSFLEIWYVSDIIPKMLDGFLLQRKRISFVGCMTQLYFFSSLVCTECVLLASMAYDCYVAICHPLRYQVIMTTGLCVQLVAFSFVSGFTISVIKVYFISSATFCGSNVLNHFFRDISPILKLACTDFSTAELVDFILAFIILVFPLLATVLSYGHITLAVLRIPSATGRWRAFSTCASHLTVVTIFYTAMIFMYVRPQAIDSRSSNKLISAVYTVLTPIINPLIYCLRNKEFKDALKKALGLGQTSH
T7 sequence (A4D2G3 whole entry): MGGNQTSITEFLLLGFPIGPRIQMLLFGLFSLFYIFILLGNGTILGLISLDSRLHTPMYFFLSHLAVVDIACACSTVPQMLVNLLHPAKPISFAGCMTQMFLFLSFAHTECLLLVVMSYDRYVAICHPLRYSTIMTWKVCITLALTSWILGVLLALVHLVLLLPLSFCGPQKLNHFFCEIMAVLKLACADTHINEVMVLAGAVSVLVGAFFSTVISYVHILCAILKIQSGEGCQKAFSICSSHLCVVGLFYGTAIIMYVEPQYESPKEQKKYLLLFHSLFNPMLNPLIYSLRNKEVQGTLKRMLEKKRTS
T2 sequence (Q8NGR4 1-320 with the stated changes): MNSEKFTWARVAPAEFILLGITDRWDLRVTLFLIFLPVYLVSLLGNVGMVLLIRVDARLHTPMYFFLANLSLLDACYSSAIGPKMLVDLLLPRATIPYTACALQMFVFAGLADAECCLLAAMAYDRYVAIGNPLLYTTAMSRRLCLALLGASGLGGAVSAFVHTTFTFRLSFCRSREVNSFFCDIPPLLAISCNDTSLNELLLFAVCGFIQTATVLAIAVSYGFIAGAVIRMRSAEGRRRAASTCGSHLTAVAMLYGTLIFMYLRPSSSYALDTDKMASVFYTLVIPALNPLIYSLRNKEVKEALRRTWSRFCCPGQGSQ

SMILES	response of consensus 10A4 [3]	response of consensus 10A2 [4]	responsiveness of the 10A4 R262Q variant [5]	responsiveness of the 10A2 variant of H43R, H207R, and K258T [6]	also measured
CC(C)C=O [isobutyraldehyde]	–	–	–	–	responsiveness of consensus 6B2 with R122C and C179R [1]: markedly reduced
CC(C)=CCCC(C)=CC=O [citral]	–	–	–	–	responsiveness of consensus 5C1 with N5K [2]: markedly reduced
CCCCCCC/C=C/C=O [(E)-2-decenal]	can recognize; also recorded: lower responsiveness	can recognize	no change in responsiveness	markedly low responsiveness	–
CCCCCCCCC/C=C/C=O [(E)-2-dodecenal]	can recognize; also recorded: lower responsiveness	can recognize	no change in responsiveness	markedly low responsiveness	–
CC(C)=CCC/C(C)=C/CO [geraniol]	–	–	–	–	response of 2A25 (ranking of affinity for 2 agonists) [7]: responded to geraniol at a lower concentration in comparison with geranyl formate
CC(=O)C(C)=O [diacetyl]	–	–	–	–	response of 6Y1 (6Y1): responds
